US11369611B2, “Therapeutic compounds and uses thereof” (Kala Pharmaceuticals, Inc., priority 2013, dated 2022)

How the values were obtained:
[1] = Draize ocular irritation assessment; format: in vivo; settings: MPP 0.5%, 50 μL topical BID 5 days, Dutch-belted rabbits
Source text: Dutch-belted rabbits were used in these studies.

[2] = Particle size of compounds milled with PLURONIC F127 as MPP (dynamic light scattering); format: physicochemical; settings: formulated as MPP, milled with PLURONIC F127, DPBS buffered
Source text: The compounds of the present invention synthesized in accordance with the preceding Examples were formulated as mucus penetrating particles (MPP). Specifically, Compound 4 of Example 1, Compound 9 of Example 2, and Compound 13 of Example 3 were each milled in the presence of PLURONIC F127 (F127) to determine whether F127 1) aids particle size reduction to several hundreds of nanometers and 2) physically (non-covalently) coats the surface of generated nanoparticles with a mucoinert coating that would minimize particle interactions with mucus constituents and prevent mucus adhesion.
A milling procedure was employed in which an aqueous dispersion containing coarse drug particles and PLURONIC F127 (F127) was milled with grinding medium until particle size was reduced below 400 nm as measured by dynamic light scattering. Table 4 lists the size of particles and polydispersity index (a measure of the width of the particle size distribution) generated using this technique. In this example suspensions were buffered using DPBS (Dulbecco's Phosphate-Buffered Saline) which yields a suspension that is both isotonic and has a physiologically relevant pH.

COc1cc2c(Oc3ccc4[nH]c(C)cc4c3F)ncnc2cc1OCCCN1CCC2(CC1)COC2 [Compound 4, 7-(3-(4-(4-fluoro-2-methyl-1H-indol-5-yloxy)-6-methoxyquinazolin-7-yloxy)propyl)-2-oxa-7-azaspiro[3.5]nonane]
Draize-Ocular Irritation [1]: no irritation was seen
Particle Size [2]: 270 nm
